# In US20070281935A1, “Use” (PFIZER INC., priority 2004, published 2007):
# Experiments:
# Assay type in all cases: in vivo
# Holstein cows = assay: Milk yield and milk quality study in pregnant, non-lactating Holstein cows; conditions: approximately 0.5 mg/kg subcutaneous on day of calving and day five post-calving
# Description: Machines to assay for milk protein, fat, or lactose content are commercially available (MilkoScan™ 50, MilkoScan™ 4000, MilkoScan™ FT 6000 available from Foss Group). Machines to assay for somatic cell content are also commercially available (Fossomatic™ FC, Fossomatic™ Minor available from Foss Group).
# One hundred twenty four pregnant, non-lactating Holstein cows were allocated to two treatment groups (placebo and COMPOUND at approximately 0.5 mg/kg). Animals were allowed to calve, treated by subcutaneous injection on the day of calving and on day five post-calving. Disease events and daily milk production were recorded for the following sixty days. The average daily milk yield in the treated cows was increased from 41.8 to 43.2 kg/day (p=0.052). There was also a significant beneficial effect on milk quality (increased protein and lactose yield, decreased somatic cell count). Results are shown in the FIG. 3 and FIG. 4, where COMPOUND represents Compound Z.
# cows [1] = assay: Liver triglyceride levels in transition cows (post-calving liver biopsies); conditions: all treatment regimens (0.5 mg/kg); Days 5, 10 and 14 postcalving
# Description: (§1) To determine negative energy balance, serum concentrations of NEFAs or ketone bodies, or levels of triglycerides in liver tissues, are measured. Higher than ‘normal’ levels of NEFA's and/or triglycerides and/or ketone bodies are indicators of negative energy balance. Levels considered ‘higher than normal’ or ‘excessive’ are: • NEFA's >800 μmol/L in serum. • Triglycerides >10% w/w in liver tissue. • Ketone bodies […] in serum. Determination of Changes in Blood Non-Esterified Fatty Acid (NEFA) Concentrations and Liver Triglycerides Levels:
# (§2) Compounds were administered once or several times in the transition period at dose levels predicted to be effective by comparing results of in-vitro receptor affinity tests in laboratory species and pharmacokinetic evaluations in cattle. NEFA levels were determined via standard laboratory methods, for example, using the commercial WAKO NEFA kit (Wako Chemical Co., USA, Dallas, Tex., 994-75409), and liver triglyceride content was determined using the method as described in the literature (J. K. Drackley, J. J. Veenhuizen, M. J. Richard and J. W. Young, J Dairy Sci, 1991, 74, 4254)). […]
# (§3) As soon as possible post-calving (˜30 minutes) the cow was transferred to the freestall barn for the next scheduled milking (6:00 hrs and 19:00 hrs). […] Pre and post-calving NEFA samples were analyzed using the WAKO NEFA-C test kit (#994-75409). […]
# cows [2] = assay: Changes in blood non-esterified fatty acid (NEFA) concentrations in transition cows
# Description: as §1, §2, §3
# [3] = versus placebo, significant beneficial effect
smiles,measurement,setting,value
"CC(C)(Oc1cccc([C@@H]2CCCN(C(=O)OCc3ccc(C(F)(F)F)cc3)C2)c1)C(=O)O [Compound Z, (3S)-3-[3-(1-Carboxy-1-methyl-ethoxy)-phenyl]-piperidine-1-carboxylic acid 4-trifluoromethyl-benzyl ester]",average daily milk yield,"Holstein cows; sixty days recording, placebo 41.8, p=0.052",43.2 kg/day
same,milk quality: lactose yield,Holstein cows; [3],increased
same,milk quality: protein yield,Holstein cows; [3],increased
same,milk quality: somatic cell count,Holstein cows; [3],decreased
same,liver triglyceride levels compared to placebo,cows [1],significantly lowered
same,serum NEFA levels as compared to controls,"cows [2]; all animals treated with Compound Z (T02, T03, T04; 0.5 mg/kg), from Day 1 (after calving) until Day 6 of the study",significantly lower
same,serum NEFA levels compared to controls,"cows [2]; treatment group T03 (0.5 mg/kg at calving and post partum eod 4 doses), all timepoints",significantly lower
